“Also recorded” adds a separate entry of the source. *1 amine or outer side, *2 acyl side, *3 side chain or, on linkers, in order; H or OH if unused. Where a SMILES comes first, the peptide text is derived from it. [ ]: non-standard residue; d: D form. X1 = O=C([C@@H]1C[C@H](n2cc([C]34[CH]5[CH]6[CH]7[CH]3[Fe]6754389%10[CH]4[CH]3[CH]8[CH]9[CH]4%10)nn2)CN1[*:1])[*:2]; Cit = NC(=O)NCCC[C@H](N)C(=O)O
What was measured:
[1] = target: T1, HIV-1YU-2 gp120 binding to sCD4 (Human immunodeficiency virus type 1 group M subtype B, UniProt P35961); details: Table 12; 100 nM gp120; NA = not active
T1 construct: made in house; host or cells: Drosophila S2 cells (gp120); CHO cells (sCD4)
From the text: (§1) Where Rhigh is the response value at high inhibitor concentrations and Rlow is response at low inhibitor concentrations. Cone is the concentration of inhibitor, and A1 and A2 are fitting parameters. At IC50 the following is true:
(§2) Under this condition, A1=Conc and is therefore taken as the desired so parameter.

Pseudotyped HIV-1BaL = type: cell-based; details: Table 12; HOS.CD4.CCR5 cells, 48 hours; NA = not active; read-out: IC50 (antiviral)
[2] = system: viruses pseudotyped with the VSV-G envelope; type: cell-based
[3] = target: T2, HIV-1YU-2 gp120 binding to mAb 17b (Human immunodeficiency virus type 1 group M subtype B, UniProt P35961); details: Table 12; 100 nM gp120; NA = not active
T2 construct: made in house; host or cells: Drosophila S2 cells (gp120)
From the text: as §1, §2

sCD4 = target: T3, sCD4 (Homo sapiens, UniProt P01730); test: SPR control: direct binding of peptide to sCD4 surface; details: SPR control experiment
T3 construct: soluble four domain CD4 (sCD4); made in house; host or cells: CHO cells

mAb 17b = test: SPR control: direct binding of peptide to mAb 17b surface; details: SPR control experiment
HIV-1 YU2 gp120 [4] = target: T4, HIV-1 YU2 gp120 (Human immunodeficiency virus type 1 group M subtype B, UniProt P35961); type: binding; details: for dissociation rate constant (koff): Table 11, dissociation rate
T4 construct: made in house; host or cells: Drosophila S2 cells
Protocol: Surface plasmon resonance (SPR) interaction analyses were performed on a Biacore® 3000 optical biosensor (GE). All experiments were carried out at 25° C. using standard PBS, pH 7.4, with 0.005% Surfactant P20.
Regeneration of the surface was achieved by a one 5-second pulse of 10 mM glycine, pH 1.5.
SPR data analyses were performed using BIAEvaluation 4.0 software (GE). […] Experimental data were fitted to a simple 1:1 binding model with a parameter included for mass transport. […] The inhibition curve was converted into a calibration curve by the use of a fitting function. The fitting was done using the 4-parameter equation in BIAevaluation software: […]

HIV-1 YU2 gp120 [5] = target: T4, HIV-1 YU2 gp120; test: biochemical; type: binding; details: Kd (affinity) for HIV-1 YU2 gp120 as measured by SPR
Protocol: All surface plasmon resonance experiments (SPR) were performed on a BIA3000 optical biosensor (Biocore, Inc., Uppsala, Sweden). […] For direct binding experiments, YU2 gp120 was immobilized on the surface (˜4000 RU); peptide analytes in PBS buffer were passed over the surface at a flow rate of 50 μL/min, with 5 minute association phase and 5 minute dissociation phase. […] The indicated analytes were passed over the surfaces at a flow rate of 50 μL/minute, with 2.5 minute association phase and 2.5 minute dissociation phase.
Data analysis was performed using BIAEvaluation® 4.0 software (Biacore Inc., NJ). The responses of a buffer injection and responses from the control surface to which the mAb 2B6R was immobilized, were subtracted to account for nonspecific binding. Experimental data were fitted to a simple 1:1 Langmuir binding model with a parameter included for mass transport. The average kinetic parameters (association [ka] and dissociation [kd] rates) generated from a minimum of four datasets were used to define equilibrium association (KA) and dissociation constants (KD).

gp120 = target: T5, gp120 (Human immunodeficiency virus type 1 group M subtype B, UniProt P35961); type: binding, HIV-1; details: ITC, 25° C., PBS pH 7.4
T5 construct: made in house; host or cells: Drosophila S2 cells
Protocol: FIGS. 14A-14D are a series of graphs of calorimetric titration data of gp120 with various peptides. […] Data was obtained as 25° C. in PBS, pH 7.4. Experiments in FIGS. 14A and 14B were carried out using a VP-ITC, where 2 μM gp120 in the calorimetric cell (˜1.4 mL) was titrated with 10 μL aliquots of peptide at concentration of 30 μM.
Isothermal titration calorimetric experiments were performed using high-precision calorimetric systems of model VP-ITC or ITC20 from MicroCal Inc. The titrations were performed by stepwise addition of peptide to gp120 contained in the calorimetric cell at a constant temperature of 25° C. […] For the experiments carried out in the VP-ITC the concentration of gp120 was about 2 μM and the syringe contained the peptide at a concentration about 30 μM. For the experiment carried out using ITC20 gp120 was prepared at about 4 μM and the peptide at 50-100 μM. The solutions contained within the calorimetric cells and injector syringes were prepared in PBS, pH 7.4 and thoroughly degassed to avoid bubble formation in the calorimetric cell. The heat evolved upon each injection of the peptide solution was obtained from the integral of the calorimetric signal. The heat associated with binding of a ligand to the protein in the cell was obtained by subtracting the heat of dilution from the heat of reaction.

SMILES | sCD4 (IC50) [1] | IC50 (Pseudotyped HIV-1BaL) [µM] | inhibition of negative control viruses pseudotyped with the VSV envelope [2] | mAb 17b (IC50) [3] | direct binding to sCD4 (sCD4) | direct binding to 17b (mAb 17b) | dissociation rate constant (koff) (HIV-1 YU2 gp120 [4]) | affinity relative to 12 mer peptide of HNG-156 (HIV-1 YU2 gp120 [4]; lower affinity) [fold] | Kd (HIV-1 YU2 gp120 [5]) [nM] | ΔH (gp120) [kcal/mol] | −TΔS (gp120)
CSCC[C@H](NC(=O)[C@H](CCSC)NC(=O)[C@H](C)NC(=O)[C@H](CCC(=O)O)NC(=O)[C@H](CO)NC(=O)[C@H](Cc1c[nH]c2ccccc12)NC(=O)[C@@H]1C[C@H](n2cc([C]34[CH]5[CH]6[CH]7[CH]3[Fe]6754389%10[CH]4[CH]3[CH]8[CH]9[CH]4%10)nn2)CN1)C(N)=O (stereo partly drawn) [UM10] (H-[X1]WSEAMM-NH2; N-terminus and C-terminus assumed) | unable to inhibit; also recorded: no IC50 value could be calculated | 35 ± 15 | Neither of these conjugates inhibited | unable to inhibit | neither UM10 nor UM12 exhibited direct binding | neither UM10 nor UM12 exhibited direct binding | 8.90E−04 ± 1.2 1/S | 100 |  |  | 
CC[C@H](C)[C@H](NC(=O)[C@H](CC(N)=O)NC(=O)[C@H](CC(N)=O)NC(=O)[C@@H](N)CCCNC(N)=O)C(=O)N1C[C@@H](n2cc([C]34[CH]5[CH]6[CH]7[CH]3[Fe]6754389%10[CH]4[CH]3[CH]8[CH]9[CH]4%10)nn2)C[C@H]1C(=O)N[C@@H](Cc1c[nH]c2ccccc12)C(=O)N[C@@H](CO)C(N)=O (stereo partly drawn) [UM24] (H-[Cit]NNI[X1]WS-NH2; N-terminus and C-terminus assumed) |  |  |  |  |  |  | 2.9E−03 ± 1.2 1/S |  | ~21 | -16.7 | +6.3 kcal/mol
